Measurements as given in patent publication US11419852B2, “Beta-lactam compounds or salts thereof for use in long-acting prevention or treatment of a glucose metabolism disorder” (GLYCOLYSIS BIOMED CO., LTD., priority 2019, dated 2022).
Marks after values point to notes of the source that are not given here.

Columns and labels:
[1] = tested on: db/db mice; experiment: Oral glucose tolerance test (OGTT); format: in vivo; parameters: OGTT AUC: unit not given here
Protocol: Four to five weeks old db/db mice (BKS.Cg-Dock7^m+/+Lepr^db/JNarl) and m/m mice (BKS.Cg-Dock7^m+/Dock7^m+) were obtained from National Laboratory Animal Center ([…], Taiwan). […] PMI Nutrition International, Brentwood, Mo.) and water ad libitum. […] Blood was sampled from the tail vein, and FPG levels were measured and recorded as the basic blood glucose levels. […] The total area under the curve (AUC) in OGTT was plotted and calculated by the Area Under Coordinates Program (StatsToDo Server, Department of Obstetrics and Gynecology, Chinese University of Hong Kong).

[2] = tested on: db/db mice; experiment: Plasma biochemical parameters (AST, ALT, BUN, Cr, HbA1c); format: in vivo
Protocol: Inflammatory markers such as serum aspartate aminotransferase (AST), alanine aminotransferase (ALT), blood urea nitrogen (BUN), creatinine (Cr), and hemoglobin Alc (HbAlc) were measured using a BMC-Hitachi 717 chemistry auto analyzer.

[3] = Ex 1: db/db mice, ertapenem i.p. 0.41 mg/g bw/day, week 3
[4] = Ex 3, after the treatments had been stopped for 6 weeks
[5] = Ex 3: db/db mice, daily dosing 3 weeks at doses of Table 10, week 9

## C[C@@H](O)[C@H]1C(=O)N2C(C(=O)O)=C(S[C@@H]3CN[C@H](C(=O)Nc4cccc(C(=O)O)c4)C3)[C@H](C)[C@H]12 [DMH, ertapenem]
[1]; Ex 2 G5 db/db, DMH i.p. 0.2 mg/g bw/day, dosing 6 weeks, Week 18, 30 min
  Level of OGTT (blood glucose): 941 ± 53 mg/dL
[1]; Ex 2 G5 db/db, DMH i.p. 0.2 mg/g bw/day, dosing 6 weeks, Week 18, 60 min
  Level of OGTT (blood glucose): 753 ± 70 mg/dL
[1]; Ex 2 G5 db/db, DMH i.p. 0.2 mg/g bw/day, dosing 6 weeks, Week 18, 120 min
  Level of OGTT (blood glucose): 541 ± 63^bc
[1]; Ex 2 G5 db/db, DMH i.p. 0.2 mg/g bw/day, dosing 6 weeks, week 6
  OGTT AUC: 916 ± 110^b
[1]; Ex 2 G5 db/db, DMH i.p. 0.2 mg/g bw/day, dosing 6 weeks, week 12
  OGTT AUC: 1171 ± 117^bc
[1]; Ex 2 G5 db/db, DMH i.p. 0.2 mg/g bw/day, dosing 6 weeks, week 16
  OGTT AUC: 1002 ± 88^bc
[1]; Ex 2 G5 db/db, DMH i.p. 0.2 mg/g bw/day, dosing 6 weeks, week 18
  OGTT AUC: 1462 ± 104^b
[1]; Ex 2 G6 db/db, DMH i.p. 0.4 mg/g bw/day, dosing 6 weeks, Week 6, 0 min
  Level of OGTT (blood glucose): 175 ± 30 mg/dL
[1]; Ex 2 G6 db/db, DMH i.p. 0.4 mg/g bw/day, dosing 6 weeks, Week 6, 15 min
  Level of OGTT (blood glucose): 747 ± 38 mg/dL
[1]; Ex 2 G6 db/db, DMH i.p. 0.4 mg/g bw/day, dosing 6 weeks, Week 6, 30 min
  Level of OGTT (blood glucose): 669 ± 69 mg/dL
[1]; Ex 2 G6 db/db, DMH i.p. 0.4 mg/g bw/day, dosing 6 weeks, Week 6, 60 min
  Level of OGTT (blood glucose): 418 ± 56 mg/dL
[1]; Ex 2 G6 db/db, DMH i.p. 0.4 mg/g bw/day, dosing 6 weeks, Week 6, 120 min
  Level of OGTT (blood glucose): 223 ± 27^ab
[1]; Ex 2 G6 db/db, DMH i.p. 0.4 mg/g bw/day, dosing 6 weeks, Week 12, 0 min
  Level of OGTT (blood glucose): 166 ± 26^ac
[1]; Ex 2 G6 db/db, DMH i.p. 0.4 mg/g bw/day, dosing 6 weeks, Week 12, 15 min
  Level of OGTT (blood glucose): 859 ± 50 mg/dL
[1]; Ex 2 G6 db/db, DMH i.p. 0.4 mg/g bw/day, dosing 6 weeks, Week 12, 30 min
  Level of OGTT (blood glucose): 698 ± 65 mg/dL
[1]; Ex 2 G6 db/db, DMH i.p. 0.4 mg/g bw/day, dosing 6 weeks, Week 12, 60 min
  Level of OGTT (blood glucose): 489 ± 55 mg/dL
[1]; Ex 2 G6 db/db, DMH i.p. 0.4 mg/g bw/day, dosing 6 weeks, Week 12, 120 min
  Level of OGTT (blood glucose): 324 ± 47 mg/dL
[1]; Ex 2 G6 db/db, DMH i.p. 0.4 mg/g bw/day, dosing 6 weeks, Week 16, 0 min
  Level of OGTT (blood glucose): 108 ± 22^ab
[1]; Ex 2 G6 db/db, DMH i.p. 0.4 mg/g bw/day, dosing 6 weeks, Week 16, 15 min
  Level of OGTT (blood glucose): 543 ± 57 mg/dL
[1]; Ex 2 G6 db/db, DMH i.p. 0.4 mg/g bw/day, dosing 6 weeks, Week 16, 30 min
  Level of OGTT (blood glucose): 650 ± 29^bc
[1]; Ex 2 G6 db/db, DMH i.p. 0.4 mg/g bw/day, dosing 6 weeks, Week 16, 60 min
  Level of OGTT (blood glucose): 535 ± 43^bc
[1]; Ex 2 G6 db/db, DMH i.p. 0.4 mg/g bw/day, dosing 6 weeks, Week 16, 120 min
  Level of OGTT (blood glucose): 244 ± 35^ab
[1]; Ex 2 G6 db/db, DMH i.p. 0.4 mg/g bw/day, dosing 6 weeks, Week 18, 0 min
  Level of OGTT (blood glucose): 266 ± 35 mg/dL
[1]; Ex 2 G6 db/db, DMH i.p. 0.4 mg/g bw/day, dosing 6 weeks, Week 18, 15 min
  Level of OGTT (blood glucose): 872 ± 46 mg/dL
[1]; Ex 2 G6 db/db, DMH i.p. 0.4 mg/g bw/day, dosing 6 weeks, Week 18, 30 min
  Level of OGTT (blood glucose): 860 ± 58 mg/dL
[1]; Ex 2 G6 db/db, DMH i.p. 0.4 mg/g bw/day, dosing 6 weeks, Week 18, 60 min
  Level of OGTT (blood glucose): 637 ± 64 mg/dL
[1]; Ex 2 G6 db/db, DMH i.p. 0.4 mg/g bw/day, dosing 6 weeks, Week 18, 120 min
  Level of OGTT (blood glucose): 480 ± 73 mg/dL
[1]; Ex 2 G6 db/db, DMH i.p. 0.4 mg/g bw/day, dosing 6 weeks, week 6
  OGTT AUC: 884 ± 84^b
[1]; Ex 2 G6 db/db, DMH i.p. 0.4 mg/g bw/day, dosing 6 weeks, week 12
  OGTT AUC: 1026 ± 94^b
[1]; Ex 2 G6 db/db, DMH i.p. 0.4 mg/g bw/day, dosing 6 weeks, week 16
  OGTT AUC: 916 ± 68^b
[1]; Ex 2 G6 db/db, DMH i.p. 0.4 mg/g bw/day, dosing 6 weeks, week 18
  OGTT AUC: 1291 ± 118^b
[1]; Ex 3, medications stopped for at least 3 weeks (FIG. 6A, 6B)
  Regulation of blood glucose homeostasis (OGTT glucose vs G8): still effective
[1]; Ex 3: db/db mice, daily dosing 3 weeks at doses of Table 10, Week 6 (stopped for 3 weeks)
  OGTT AUC: 1263 ± 135^b
[1]; Ex 3: db/db mice, daily dosing 3 weeks at doses of Table 10, Week 9 (stopped for 6 weeks)
  OGTT AUC: 1356 ± 149^bc
[2]; Ex 1, week 3
  Levels of AST, ALT, BUN, and HbA1c in the diabetes mice: significantly reduced
[2]; [3]
  ALT: 34 ± 6 U/L
  AST: 61 ± 7 U/L
  BUN: 27 ± 2 mg/dL
  Creatinine: 0.57 ± 0.02 mg/dL
  HbA1c: 6.1 ± 0.8 %
[2]; [4]
  Level of ALT: reduce
  Level of AST: reduce
  Level of HbA1c: reduce
[2]; [5]
  ALT: 79 ± 8^bc U/L
  AST: 127 ± 13^ad U/L
  BUN: 44 + 2^d mg/dL
  Creatinine: 0.467 ± 0.01^bd mg/dL
  HbA1c: 5.8 ± 0.3^d %
